According to US20230287044A1, “NOVEL ANTIBACTERIAL PEPTIDE AND USE THEREOF” (priority 2020, published 2023):
Values after ≈ are worked out from the molar mass of the structure shown. Like-named read-outs stand apart in the source and are kept apart here. Square brackets hold non-standard residues; d marks the D form. Ends that are not written are not given here. Peptide text beside a SMILES is read from it. * marks the point of attachment. NH(β-GlcNAc) = CC(=O)N[C@@H]1[C@@H](O)[C@H](O)[C@@H](CO)O[C@H]1N*; Decanoyl = CCCCCCCCCC(=O)*; Hexanoyl = CCCCCC(=O)*

Key:
[1] = system: MRAB (A. baumannii) ATCC BAA 1605; format: cell-based, Acinetobacter baumannii
Method: (§1) The minimum growth inhibitory concentrations of the antibacterial peptides of the present invention weremeasured, and the results are shown in Table 3 below.
(§2) Specifically, the strains were grown in CAMHB until the midlog phase, and then diluted with PBS buffer to 1× 10^6 cfu/ml to prepare the bacterial solution, and the antibacterial peptide prepared in Example 1above was diluted with CAMHB to 80 µM, 40 µM, 20 µM, 10 µM, 5 µM, 2.5 µM, 1.25 µM and 0.63 µM, and then the bacterial solution was treated with the same volume.
(§3) The results are the average value of three independent experiments.

[2] = system: MRSA (S. aureus) KCCM 40510; format: cell-based, Staphylococcus aureus
Method: as §1, §2, §3

[3] = system: MRPA (P. aeruginosa) CCARM 2180; format: cell-based, Pseudomonas aeruginosa; conditions: CCARM 2180, 18 h
Method: as §1, §2, §3

[4] = system: VRE (E. faecalis) ATCC 51575; format: cell-based, Enterococcus faecalis
Method: as §1, §2, §3

[5] = CAMHB, 37° C., 18 hours, average of three experiments

Row | Compound | MIC MRAB (A. baumannii) ATCC BAA 1605 ([1]; ATCC BAA 1605, 18 h) | MIC MRSA (S. aureus) KCCM 40510 ([2]; KCCM 40510, 18 h) [µM] | MIC MRPA (P. aeruginosa) CCARM 2180 [3] [µM] | MIC VRE (E. faecalis) ATCC 51575 ([4]; ATCC 51575, 18 h) [µM] | MIC MRAB (A. baumannii) ATCC BAA 1605 [1, 5] [µM] | MIC MRSA (S. aureus) KCCM 40510 [2, 5] [µM] | MIC VRE (E. faecalis) ATCC 51575 [4, 5] [µM]
1 | WLLWIALRKKR-NH2 [KSH1] | – | – | 40 | – | 5 | 2.5 | 5
2 | CC[C@@H](C)[C@@H](NC(=O)[C@@H](Cc1c[nH]c2ccccc12)NC(=O)[C@@H](CCCNC(=N)N)NC(=O)[C@@H](CCCNC(=N)N)NC(=O)[C@@H](CCCNC(=N)N)NC(=O)[C@@H](N)CC(=O)N[C@@H]1O[C@H](CO)[C@@H](O)[C@H](O)[C@H]1NC(C)=O)C(=O)N[C@H](Cc1c[nH]c2ccccc12)C(=O)N[C@@H](C(=O)N[C@H](CC(C)C)C(=O)N[C@H](Cc1c[nH]c2ccccc12)C(=O)N[C@H](CCCCN)C(N)=O)C(C)C [KSH47, Nrrrwiwvlwk] (H-D(NH(β-GlcNAc))[dR][dR][dR][dW][dI][dW][dV][dL][dW][dK]-NH2; N-terminus assumed) | 1.25 µM (≈ 2.27 µg/mL) | 2.5 (≈ 4.54 µg/mL) | 10 (≈ 18.2 µg/mL) | 2.5 (≈ 4.54 µg/mL) | – | – | –
3 | CCCCCC(=O)NCCCC[C@@H](N)C(=O)N[C@H](Cc1c[nH]c2ccccc12)C(=O)N[C@H](CC(C)C)C(=O)N[C@H](CC(C)C)C(=O)N[C@H](Cc1c[nH]c2ccccc12)C(=O)N[C@@H](C(=O)NCC(=O)N[C@H](CC(C)C)C(=O)N[C@H](CCCNC(=N)N)C(=O)N[C@H](CCCCN)C(=O)N[C@H](CCCCN)C(=O)N[C@H](CCCNC(=N)N)C(N)=O)[C@H](C)CC [KSH9, kwllwiglrkkr] (H-[dK](Hexanoyl)[dW][dL][dL][dW][dI]G[dL][dR][dK][dK][dR]-NH2; N-terminus assumed) | 5 µM (≈ 8.47 µg/mL) | 1.25 (≈ 2.12 µg/mL) | 10 (≈ 16.9 µg/mL) | 1.25 (≈ 2.12 µg/mL) | – | – | –
4 | CCCCCCCCCC(=O)NCCCC[C@@H](NC(=O)[C@@H](CCCCN)NC(=O)[C@@H](CCCNC(=N)N)NC(=O)[C@@H](CC(C)C)NC(=O)[C@@H](C)NC(=O)[C@H](NC(=O)[C@@H](Cc1c[nH]c2ccccc12)NC(=O)[C@@H](CC(C)C)NC(=O)[C@@H](CC(C)C)NC(=O)[C@H](N)Cc1c[nH]c2ccccc12)[C@H](C)CC)C(=O)N[C@H](CCCNC(=N)N)C(N)=O [KSH4, wllwialrkkr] (H-[dW][dL][dL][dW][dI][dA][dL][dR][dK][dK](Decanoyl)[dR]-NH2; N-terminus assumed) | >40 µM | 5 (≈ 8.18 µg/mL) | >40 | 5 (≈ 8.18 µg/mL) | – | – | –
5 | CC(C)[C@@H](NC(=O)[C@H](N)Cc1c[nH]c2ccccc12)C(=O)N[C@H](C)C(=O)N[C@H](Cc1c[nH]c2ccccc12)C(=O)N[C@H](C)C(=O)N[C@@H](C(=O)N[C@H](Cc1c[nH]c2ccccc12)C(=O)N[C@H](CCCNC(=N)N)C(=O)N[C@H](CCCNC(=N)N)C(=O)N[C@H](CCCNC(=N)N)C(N)=O)C(C)C [KSH71, wvawavwrrr] (H-[dW][dV][dA][dW][dA][dV][dW][dR][dR][dR]-NH2; N-terminus assumed) | 1.25 µM (≈ 1.73 µg/mL) | 5 (≈ 6.92 µg/mL) | >10 | 2.5 (≈ 3.46 µg/mL) | – | – | –
6 | CC[C@@H](C)[C@@H](NC(=O)[C@@H](Cc1c[nH]c2ccccc12)NC(=O)[C@@H](C)NC(=O)[C@@H](C)NC(=O)[C@H](N)Cc1c[nH]c2ccccc12)C(=O)NCC(=O)N[C@H](CC(C)C)C(=O)N[C@H](CCCNC(=N)N)C(=O)N[C@H](CCCCN)C(=O)N[C@H](CCCCN)C(=O)N[C@H](CCCCN)C(N)=O [KSH75, waawiglrkkk] (H-[dW][dA][dA][dW][dI]G[dL][dR][dK][dK][dK]-NH2; N-terminus assumed) | 2.5 µM (≈ 3.39 µg/mL) | >10 | >10 | >10 | – | – | –
7 | CC[C@@H](C)[C@@H](NC(=O)[C@@H](Cc1c[nH]c2ccccc12)NC(=O)[C@@H](CCCNC(=N)N)NC(=O)[C@H](N)CCCNC(=N)N)C(=O)N[C@H](Cc1c[nH]c2ccccc12)C(=O)N[C@@H](C(=O)N[C@H](CC(C)C)C(=O)N[C@H](Cc1c[nH]c2ccccc12)C(=O)N[C@@H](CCCNC(=N)N)C(N)=O)C(C)C [KSH55, rrwiwvlwR] (H-[dR][dR][dW][dI][dW][dV][dL][dW]R-NH2; N-terminus assumed) | 0.63 µM (≈ 0.863 µg/mL) | 0.63 (≈ 0.863 µg/mL) | 2.5 (≈ 3.42 µg/mL) | 0.63 (≈ 0.863 µg/mL) | – | – | –
8 | CC[C@@H](C)[C@@H](NC(=O)[C@@H](Cc1c[nH]c2ccccc12)NC(=O)[C@@H](CCCCN)NC(=O)[C@@H](CCCNC(=N)N)NC(=O)[C@H](N)CCCNC(=N)N)C(=O)N[C@H](Cc1c[nH]c2ccccc12)C(=O)N[C@H](Cc1c[nH]c2ccccc12)C(=O)N[C@H](CC(C)C)C(=O)N[C@H](Cc1c[nH]c2ccccc12)C(=O)N[C@H](CCCCN)C(N)=O [KSH51, rrkwiwwlwk] (H-[dR][dR][dK][dW][dI][dW][dW][dL][dW][dK]-NH2; N-terminus assumed) | 1.25 µM (≈ 1.95 µg/mL) | 1.25 (≈ 1.95 µg/mL) | 5 (≈ 7.78 µg/mL) | 1.25 (≈ 1.95 µg/mL) | – | – | –
9 | CCCCCCCCCC(=O)NCCCC[C@@H](N)C(=O)N[C@H](Cc1c[nH]c2ccccc12)C(=O)N[C@H](CC(C)C)C(=O)N[C@H](CC(C)C)C(=O)N[C@H](Cc1c[nH]c2ccccc12)C(=O)N[C@@H](C(=O)NCC(=O)N[C@H](CC(C)C)C(=O)N[C@H](CCCNC(=N)N)C(=O)N[C@H](CCCCN)C(=O)N[C@H](CCCCN)C(=O)N[C@H](CCCNC(=N)N)C(N)=O)[C@H](C)CC [KSH10, kwllwiglrkkr] (H-[dK](Decanoyl)[dW][dL][dL][dW][dI]G[dL][dR][dK][dK][dR]-NH2; N-terminus assumed) | >20 µM | 5 (≈ 8.75 µg/mL) | >20 | 5 (≈ 8.75 µg/mL) | – | – | –

Second part, led by results:

Row | MIC MRAB (A. baumannii) ATCC BAA 1605 ([1]; ATCC BAA 1605, 18 h) | MIC MRSA (S. aureus) KCCM 40510 ([2]; KCCM 40510, 18 h) [µM] | MIC MRPA (P. aeruginosa) CCARM 2180 [3] [µM] | MIC VRE (E. faecalis) ATCC 51575 ([4]; ATCC 51575, 18 h) [µM] | Compound | MIC MRAB (A. baumannii) ATCC BAA 1605 [1, 5] [µM] | MIC MRSA (S. aureus) KCCM 40510 [2, 5] [µM] | MIC VRE (E. faecalis) ATCC 51575 [4, 5] [µM]
10 | 1.25 µM | 5 | 20 | 5 | WLVYVWLRKKR-NH2 [LSH2] | – | – | –
11 | 2.5 µM | 10 | 40 | 10 | WLWVWVRKKR-NH2 [LSH5] | – | – | –
12 | 5 µM (≈ 5.64 µg/mL) | >10 | >10 | >10 | CC[C@@H](C)[C@@H](NC(=O)[C@@H](Cc1c[nH]c2ccccc12)NC(=O)[C@@H](C)NC(=O)[C@@H](C)NC(=O)[C@H](N)Cc1c[nH]c2ccccc12)C(=O)NCC(=O)N[C@H](CC(C)C)C(=O)N[C@H](CCCNC(=N)N)C(=O)N[C@H](CCCNC(=N)N)C(N)=O [KSH78, waawiglrr] (H-[dW][dA][dA][dW][dI]G[dL][dR][dR]-NH2; N-terminus assumed) | – | – | –
13 | 10 µM (≈ 14.4 µg/mL) | 1.25 (≈ 1.8 µg/mL) | 10 (≈ 14.4 µg/mL) | 1.25 (≈ 1.8 µg/mL) | CC(C)[C@@H](NC(=O)[C@@H](Cc1c[nH]c2ccccc12)NC(=O)[C@@H](CCCNC(=N)N)NC(=O)[C@@H](CCCNC(=N)N)NC(=O)[C@H](N)CCCNC(=N)N)C(=O)N[C@@H](C(=O)N[C@@H](C(=O)N[C@@H](C(=O)N[C@H](Cc1c[nH]c2ccccc12)C(=O)N[C@H](Cc1c[nH]c2ccccc12)C(N)=O)C(C)C)C(C)C)C(C)C [KSH85, rrrwvvvvww] (H-[dR][dR][dR][dW][dV][dV][dV][dV][dW][dW]-NH2; N-terminus assumed) | – | – | –
14 | 2.5 µM (≈ 3.46 µg/mL) | >10 | >10 | >10 | CC[C@@H](C)[C@@H](NC(=O)[C@@H](Cc1c[nH]c2ccccc12)NC(=O)[C@@H](C)NC(=O)[C@@H](C)NC(=O)[C@H](N)Cc1c[nH]c2ccccc12)C(=O)NCC(=O)N[C@H](CC(C)C)C(=O)N[C@H](CCCNC(=N)N)C(=O)N[C@H](CCCCN)C(=O)N[C@H](CCCNC(=N)N)C(=O)N[C@H](CCCCN)C(N)=O [KSH77, waawiglrkrk] (H-[dW][dA][dA][dW][dI]G[dL][dR][dK][dR][dK]-NH2; N-terminus assumed) | – | – | –
15 | 1.25~2.5 µM | >10 | >10 | >10 | CC[C@@H](C)[C@@H](NC(=O)[C@@H](Cc1c[nH]c2ccccc12)NC(=O)[C@@H](C)NC(=O)[C@@H](C)NC(=O)[C@H](N)Cc1c[nH]c2ccccc12)C(=O)NCC(=O)N[C@H](CC(C)C)C(=O)N[C@H](CCCNC(=N)N)C(=O)N[C@H](CCCNC(=N)N)C(=O)N[C@H](CCCCN)C(=O)N[C@H](CCCCN)C(N)=O [KSH76, waawiglrrkk] (H-[dW][dA][dA][dW][dI]G[dL][dR][dR][dK][dK]-NH2; N-terminus assumed) | – | – | –
16 | 5 µM | 20 | >40 | 20 | WVVWVVYRKKR-NH2 [LSH7] | – | – | –
